Laboratory results: patent US20110118199A1, “USE OF CNS PENETRATING ANTICANCER COMPOUNDS FOR THE TREATMENT OF PROTOZOAL DISEASES” (priority 2006, published 2011)
Converted amounts (≈) assume the structure as drawn. Where two headings read alike, the source gives them in different places.

Legend:
[1] = test system: Trypanosoma brucei rhodesiense (STIB 900 clone); experiment: Drug sensitivity assay (Alamar Blue, 72 h) against bloodstream form trypomastigotes in vitro; assay type: cell-based
Protocol: Bloodstream form trypomastigotes of the strains (a) and (c) are maintained in Minimal Essential Medium (MEM) with Earle's salts supplemented according to Baltz et al. (EMBO J. 4, 1273-1277, 1985) with 25 mM N-2-hydroxyethylpiperazine-N′-2-ethane-sulphonic acid (HEPES), 1 g/l additional glucose, 1% MEM non-essential amino acids (100×), 0.2 mM 2-mercaptoethanol, 2 mM sodium pyruvate, 0.1 mM hypoxanthine and 15% heat-inactivated horse serum.
All cultures and assays are conducted at 37° C. under an atmosphere of 5% CO2 in air.
Stock drug solutions are prepared in 100% dimethylsulphoxide (DMSO) (unless otherwise recommended by the supplier) at 10 mg/ml, and heated or sonicated if necessary to dissolve the sample. The stocks are kept at −20° C. For the assays, the compound is further diluted to the appropriate concentration using complete medium.
Assays are performed in 96-well microtiter plates, each well containing 100 μl of culture medium with 8×10^3 bloodstream forms with or without a serial drug dilution. The highest concentration of the test compounds is 90 μg/ml. Seven 3-fold drug dilutions are used, covering a range from 90 μg/ml to 0.123 μg/ml. Each drug is tested in duplicate. Active compounds are tested twice for confirmation. The final result is the mean of the four individual IC50 values. After 72 hrs of incubation, the plates are inspected under an inverted microscope to assure growth of the controls and sterile conditions.
Ten microliters of Alamar Blue (12.5 mg resazurin dissolved in 100 ml distilled water) are then added to each well and the plates are incubated for another 2 hours. The plates are read with a Spectramax Gemini XS microplate fluorometer (Molecular Devices Cooperation, Sunnyvale, Calif., USA) using an excitation wave length of 536 nm and an emission wave length of 588 nm. IC50 values are determined using the microplate reader software Softmax Pro (Molecular Devices Cooperation, Sunnyvale, Calif., USA).

[2] = test system: Trypanosoma brucei rhodesiense (STIB 900 clone); experiment: Sleeping sickness acute mouse model, T. b. rhodesiense STIB900; assay type: in vivo, mice (NMRI)
Protocol: Sleeping Sickness: Acute Model—Trypanosome b. rhodesiense STIB900 Parasite and Animal Strains Trypanosoma brucei rhodesiense STIB900 is used for this model. Female mice (NMRI), weighing 20-25 g, are maintained at 22° C. and 70% relative humidity.
(§1) Standard drugs as positive controls are Melarsoprol (Arsobal®, Specia, France) and Diminazene aceturate (Berenil®, Hoechst, Germany). Stock solutions of all test items were prepared in DMSO.

[3] = test system: Trypanosoma brucei brucei GVR 35; experiment: Sleeping sickness in vivo chronic CNS mouse model, T. b. brucei GVR 35; set-up: species or system mice (NMRI); conditions: 40 mg/kg single i.p. dose on day +21
Protocol: Sleeping Sickness: In Vivo Chronic CNS Model—Trypanosoma b. brucei GVR 35 Parasite and Animal Strains Trypanosoma brucei brucei GVR 35 which leads to a CNS infection by day 21 post-infection (Jennings and Gray, Contrib. Microbiol. Immunol. 7, 147-54, 1983) is used for this model.
Female mice (NMRI), weighing 20-25 g, are maintained at 22° C. and 70% relative humidity.
Infection: The bloodstream forms are from a stock of cryopreserved stabilates containing 10% glycerol. The stabilate is suspended in PSG (phosphate-saline-glucose) 6:4 (Lanham & Godfrey, Exp. Parasitol. 28, 521-534, 1970) to obtain a trypanosome concentration of 8×10^4/ml. Each mouse is intraperitoneally injected with 0.25 ml inoculum (equivalent to 2×10^4 trypanosomes) on day 0.
Experimental groups and control groups each consist of 5 mice.
Evaluation endpoint: On day +28 and then twice a week until day +50 parasitaemia of all animals is checked by tail blood examination and recorded based on a subjective scale ranging from (+)=1 trypanosome/20 fields to +++=>100 trypanosomes/field with a 20× objective. After day +50 the mice are checked only once per week until day +180. For mice dying before day +180 the day of death is recorded. At day +180, surviving and aparasitaemic mice are considered cured and then euthanized. […]

[4] = patients treated for African trypanomiasis; cited from earlier work
[5] = test system: Trypanosoma brucei brucei STIB795; experiment: Sleeping sickness acute mouse model, T. b. brucei STIB795; assay type: in vivo, mice (NMRI); conditions: ip injection, four consecutive days, daily doses of 50 mg/kg; T. b. brucei STIB795 infected mice
Protocol: Trypanosoma brucei brucei STIB795 is used for this model. Female mice (NMRI), weighing 20-25 g, are maintained at 22° C. and 70% relative humidity.
as §1

[6] = T. b. rhodesiense STIB 900, in vitro, 72 h incubation, Alamar Blue, read-out: IC50
[7] = 4 × 20 mg/kg p.o., determined on day 18

SMILES: O=NN(CCCl)C(=O)NCCCl [Carmustine]
- IC50 [1, 6]: 2.18 µg/mL (≈ 10.2 µM)

SMILES: CN(C)/N=N/c1[nH]cnc1C(N)=O [Dacarbazine]
- MSD (mean survival days) [2, 7]: 16 days
- MSD (mean survival days) ([2]; 4 × 50 mg/kg p.o., determined on day 18): >18 days
- IC50 [1, 6]: 19.7 µg/mL (≈ 108 µM)

SMILES: N=C(N)c1ccc(/N=N/Nc2ccc(C(=N)N)cc2)cc1 [Diminazene diaceturate]
- course of parasitaemia and death (negative control) [3]: all mice clear parasitaemia but relapse before day +40 and die between day +50 and day +60

SMILES: CC(=O)O[C@@]12CO[C@@H]1C[C@H](O)[C@@]1(C)C(=O)[C@H](O)C3=C(C)[C@@H](OC(=O)[C@H](O)[C@@H](NC(=O)OC(C)(C)C)c4ccccc4)C[C@@](O)([C@@H](OC(=O)c4ccccc4)[C@H]21)C3(C)C [Docetaxel]
- IC50 [1, 6]: 0.006 µg/mL (≈ 0.00743 µM)

SMILES: COc1cccc2c1C(=O)c1c(O)c3c(c(O)c1C2=O)C[C@@](O)(C(=O)CO)C[C@@H]3O[C@H]1C[C@H](N)[C@H](O)[C@H](C)O1 [Doxorubicin]
- IC50 [1, 6]: 0.015 µg/mL (≈ 0.0276 µM)

SMILES: C[C@]12CC[C@@H]3c4ccc(OC(=O)N(CCCl)CCCl)cc4CC[C@H]3[C@@H]1CC[C@@H]2O [Estramustine]
- IC50 ([1]; 72 h): 41.5 µg/mL (≈ 94.2 µM)

SMILES: Nc1nc(N)nc(Nc2ccc([As]3SCC(CO)S3)cc2)n1 (stereo not drawn) [Melarsoprol]
- often fatal reactive encephalopathy, share of treated patients [4]: up to 10%

SMILES: CC(=O)O[C@H]1C(=O)[C@@]2(C)[C@H]([C@H](OC(=O)c3ccccc3)[C@]3(O)C[C@H](OC(=O)[C@H](O)[C@@H](NC(=O)c4ccccc4)c4ccccc4)C(C)=C1C3(C)C)[C@]1(OC(C)=O)CO[C@@H]1C[C@@H]2O [Paclitaxel]
- IC50 [1, 6]: 0.01 µg/mL (≈ 0.0117 µM)

SMILES: Cn1nnc2c(C(N)=O)ncn2c1=O [Temozolomide]
- MSD (mean survival days) [2, 7]: >18 days
- Cured/Infected ([2]; 4 × 50 mg/kg i.p.): 3/4
- MSD (mean survival days) ([2]; 4 × 50 mg/kg i.p.): >51.5 days
- Cured/Infected ([2]; 4 × 50 mg/kg p.o.): 4/4
- MSD (mean survival days) ([2]; 4 × 50 mg/kg p.o.): >60 days
- IC50 [1, 6]: 27.7 µg/mL (≈ 143 µM)
- cure rate [5]: 100%

SMILES: CC[C@]1(O)C[C@@H]2CN(CCc3c([nH]c4ccccc34)[C@@](C(=O)OC)(c3cc4c(cc3OC)N(C)[C@H]3[C@@](O)(C(=O)OC)[C@H](OC(C)=O)[C@]5(CC)C=CCN6CC[C@]43[C@@H]65)C2)C1 [Vinblastine]
- IC50 [1, 6]: 0.13 µg/mL (≈ 0.16 µM)
